In paper PMC12030706, “Novel ^177Lu-Labeled [Thz^14]Bombesin(6–14) Derivatives with Low Pancreas Accumulation for Targeting Gastrin-Releasing Peptide Receptor-Expressing Cancer” (Pharmaceuticals, 2025):
Numbered stars: 1 amine (or outer) side, 2 acyl side, 3 side chain; on linkers, the order of the positions; unused ones are H or OH. Square brackets hold non-standard residues; d marks the D form. Peptide text beside a SMILES is read from it. * marks the point of attachment. DOTA = O=C(O)CN1CCN(CC(=O)O)CCN(CC(=O)*)CCN(CC(=O)O)CC1; NMeH = CN[C@@H](Cc1c[nH]cn1)C(=O)O; X1 = O=C(CN1CCC(N[*:1])CC1)[*:2]; Tle = CC(C)(C)[C@H](N)C(=O)O; Thz = O=C(O)[C@@H]1CSCN1

How the values were obtained:
[1] = Ex vivo biodistribution in PC-3 tumor-bearing mice; details: mouse; for tissue uptake at 4 h: 4 h post-injection; for tissue uptake at 24 h: 24 h post-injection; for tissue uptake at 72 h: 72 h post-injection; for tissue uptake at 120 h: 120 h post-injection
Protocol: (§1) SPECT/CT imaging experiments were performed using an MILabs (Houten, The Netherlands) U-SPECT-II/CT scanner with a custom-made ultra-high-sensitivity big mouse collimator (2 mm pinhole size) following previously reported procedures. […] Male NOD.Cg-Rag1^tm1Mom Il2rg^tm1Wjl/SzJ (NRG) mice were used in these experiments because of their immunodeficient characteristics and excellent radiation tolerance. Mice were anaesthetized and subcutaneously implanted with 5 × 10^6 PC-3 prostate cancer cells (100 µL; 1:1 PBS/Matrigel) behind the left shoulder. SPECT/CT imaging and biodistribution studies were performed once the tumors reached a diameter of 5–8 mm, typically after approximately 4 weeks of growth.
(§2) For ex vivo biodistribution studies, the mice were injected with ~2–6 MBq of the radioligand. […] Blocking study was conducted at 1 h post-injection via co-injection of the radioligand with 100 μg of [D-Phe^6,Leu-NHEt^13,des-Met^14]Bombesin(6–14). Organs/tissues of interested were collected, weighed, and measured using an automatic gamma counter.

PC-3 tumor-bearing mice = test: Ex vivo biodistribution in PC-3 tumor-bearing mice
Protocol: as §1, §2

[2] = test system: PC-3 tumor-bearing NRG mouse; test: Longitudinal SPECT/CT imaging in PC-3 tumor-bearing mice; assay type: in vivo, mice (NRG); details: SPECT/CT images
Protocol: The PC-3 tumor-bearing mice were sedated (2.5% isoflurane in O2) and injected with ^177Lu-labeled ligands (15–32 MBq) through a lateral caudal tail vein. […] At each time point, a 5 min CT scan was obtained using 615 μA and 60 kV parameters for localization and attenuation, followed by 2 × 30 min static SPECT scans acquired in list mode with an energy window centered around 208 keV. The MILabs U-SPECT II reconstruction software (version 8.00) was used to reconstruct data, and the images were decay corrected to the time of injection with PMOD v 3.402 (PMOD Technologies GmbH, Fallanden, Switzerland).

[3] = large intestine, Uptake in large intestine
[4] = small intestine, Uptake in small intestine
[5] = 1 h blocked (co-injected with 100 µg [D-Phe6,Leu-NHEt13,des-Met14]Bombesin(6-14))
[6] = 1 h post-injection, 100 µg [D-Phe6,Leu-NHEt13,des-Met14]Bombesin(6–14)

tissue uptake at 1 h ([1]; large intestine, 100 ug, Uptake in large intestine, 1 h blocked (co-injected with 100 µg [D-Phe6,Leu-NHEt13,des-Met14]Bombesin(6-14))): 0.31 ± 0.08 %ID/g
tissue uptake at 4 h [1, 3]: 0.81 ± 0.21 %ID/g
tissue uptake at 24 h [1, 3]: 0.3 ± 0.12 %ID/g
tissue uptake at 72 h [1, 3]: 0.13 ± 0.05 %ID/g
tissue uptake at 120 h [1, 3]: 0.07 ± 0.04 %ID/g
tissue uptake at 1 h ([1]; liver, 100 ug, Uptake in liver, 1 h blocked (co-injected with 100 µg [D-Phe6,Leu-NHEt13,des-Met14]Bombesin(6-14))): 0.57 ± 0.15 %ID/g
tissue uptake at 4 h ([1]; liver, Uptake in liver): 0.33 ± 0.05 %ID/g
tissue uptake at 24 h ([1]; liver, Uptake in liver): 0.28 ± 0.07 %ID/g
tissue uptake at 120 h ([1]; liver, Uptake in liver): 0.08 ± 0.02 %ID/g
tissue uptake at 1 h ([1]; lungs, Uptake in lungs, 1 h post-injection): 1.53 ± 0.19 %ID/g
tissue uptake at 4 h ([1]; lungs, Uptake in lungs): 0.57 ± 0.21 %ID/g
tissue uptake at 24 h ([1]; lungs, Uptake in lungs): 0.16 ± 0.08 %ID/g
tissue uptake at 72 h ([1]; lungs, Uptake in lungs): 0.03 ± 0.01 %ID/g
tissue uptake at 120 h ([1]; lungs, Uptake in lungs): 0.03 ± 0.01 %ID/g
tissue uptake at 1 h ([1]; muscle, 100 ug, Uptake in muscle, 1 h blocked (co-injected with 100 µg [D-Phe6,Leu-NHEt13,des-Met14]Bombesin(6-14))): 0.23 ± 0.11 %ID/g
tissue uptake at 1 h ([1]; muscle, Uptake in muscle, 1 h post-injection): 0.22 ± 0.04 %ID/g
tissue uptake at 4 h ([1]; muscle, Uptake in muscle): 0.03 ± 0.01 %ID/g
tissue uptake at 24 h ([1]; muscle, Uptake in muscle): 0.01 %ID/g
tissue uptake at 72 h ([1]; muscle, Uptake in muscle): 0.01 %ID/g
tissue uptake at 1 h ([1]; pancreas, 100 ug, Uptake in pancreas, 1 h blocked (co-injected with 100 µg [D-Phe6,Leu-NHEt13,des-Met14]Bombesin(6-14))): 1.88 ± 0.42 %ID/g
tissue uptake at 4 h ([1]; pancreas, Uptake in pancreas): 1.57 ± 0.28 %ID/g
tissue uptake at 24 h ([1]; pancreas, Uptake in pancreas): ~1 %ID/g
tissue uptake at 72 h ([1]; pancreas, Uptake in pancreas): 0.68 ± 0.1 %ID/g
tissue uptake at 120 h ([1]; pancreas, Uptake in pancreas): 0.48 ± 0.08 %ID/g
tissue uptake at 1 h ([1]; small intestine, 100 ug, Uptake in small intestine, 1 h blocked (co-injected with 100 µg [D-Phe6,Leu-NHEt13,des-Met14]Bombesin(6-14))): 0.54 ± 0.1 %ID/g
tissue uptake at 1 h ([1]; small intestine, Uptake in small intestine, 1 h post-injection): 1.32 ± 0.42 %ID/g
tissue uptake at 4 h [1, 4]: 0.29 ± 0.08 %ID/g
tissue uptake at 24 h [1, 4]: 0.14 ± 0.03 %ID/g
tissue uptake at 72 h [1, 4]: 0.05 ± 0.01 %ID/g
tissue uptake at 120 h [1, 4]: 0.02 ± 0.02 %ID/g
tissue uptake at 1 h ([1]; spleen, 100 ug, Uptake in spleen, 1 h blocked (co-injected with 100 µg [D-Phe6,Leu-NHEt13,des-Met14]Bombesin(6-14))): 0.4 ± 0.04 %ID/g
tissue uptake at 24 h ([1]; spleen, Uptake in spleen): 0.14 ± 0.05 %ID/g
tissue uptake at 72 h ([1]; spleen, Uptake in spleen): 0.09 ± 0.02 %ID/g
tissue uptake at 120 h ([1]; spleen, Uptake in spleen): 0.09 ± 0.02 %ID/g
tissue uptake at 1 h ([1]; stomach, Uptake in stomach, 1 h post-injection): 0.6 ± 0.24 %ID/g
tissue uptake at 4 h ([1]; stomach, Uptake in stomach): 0.11 ± 0.04 %ID/g
tissue uptake at 24 h ([1]; stomach, Uptake in stomach): 0.16 ± 0.07 %ID/g
tissue uptake at 120 h ([1]; stomach, Uptake in stomach): 0.02 ± 0.01 %ID/g
tissue uptake at 1 h ([1]; testes, 100 ug, Uptake in testes, 1 h blocked (co-injected with 100 µg [D-Phe6,Leu-NHEt13,des-Met14]Bombesin(6-14))): 0.48 ± 0.16 %ID/g
tissue uptake at 4 h ([1]; testes, Uptake in testes): 0.05 ± 0.01 %ID/g
tissue uptake at 24 h ([1]; testes, Uptake in testes): 0.03 ± 0.01 %ID/g
tissue uptake at 72 h ([1]; testes, Uptake in testes): 0.02 %ID/g
tissue uptake at 120 h ([1]; testes, Uptake in testes): 0.01 %ID/g
Uptake in lungs (PC-3 tumor-bearing mice; [5]): 1.06 ± 0.27 %ID/g
Uptake in stomach (PC-3 tumor-bearing mice; [5]): 0.17 ± 0.06 %ID/g
Uptake in bone (PC-3 tumor-bearing mice; 1 h post-injection): 0.15 ± 0.03 %ID/g
Uptake in kidneys (PC-3 tumor-bearing mice; 1 h post-injection): 6.86 ± 0.81 %ID/g
Uptake in large intestine (PC-3 tumor-bearing mice; 1 h post-injection): 0.76 ± 0.16 %ID/g
Uptake in liver (PC-3 tumor-bearing mice; 1 h post-injection): 0.71 ± 0.08 %ID/g
Uptake in pancreas (PC-3 tumor-bearing mice; 1 h post-injection): 4.45 ± 0.83 %ID/g
Uptake in spleen (PC-3 tumor-bearing mice; 1 h post-injection): 0.47 ± 0.07 %ID/g
Uptake in testes (PC-3 tumor-bearing mice; 1 h post-injection): 0.32 ± 0.18 %ID/g
Uptake in heart (PC-3 tumor-bearing mice; 4 h post-injection): 0.06 ± 0.01 %ID/g
Uptake in kidneys (PC-3 tumor-bearing mice; 4 h post-injection): 5.51 ± 0.54 %ID/g
Uptake in spleen (PC-3 tumor-bearing mice; 4 h post-injection): 0.17 ± 0.04 %ID/g
Uptake in pancreas (PC-3 tumor-bearing mice; 24 h post-injection): 1.06 ± 0.26 %ID/g
Uptake in liver (PC-3 tumor-bearing mice; 72 h post-injection): 0.12 ± 0.03 %ID/g
Uptake in stomach (PC-3 tumor-bearing mice; 72 h post-injection): 0.10 ± 0.05 %ID/g
Uptake in adrenal glands (PC-3 tumor-bearing mice; 120 h post-injection): 0.17 ± 0.09 %ID/g
uptake in PC-3 tumor xenografts cleared within 24 h (PC-3 tumor-bearing mice; relative to 1 h uptake): 47%
excretion pathway [2]: excreted mainly via the renal pathway
Compound: CC(C)C[C@H](NC(=O)[C@H](Cc1cnc[nH]1)N(C)C(=O)CNC(=O)[C@@H](NC(=O)[C@H](C)NC(=O)[C@H](Cc1c[nH]c2ccccc12)NC(=O)[C@H](Cc1c[nH]cn1)NC(=O)[C@@H](Cc1ccccc1)NC(=O)CN1CCC(NC(=O)CN2CCN(CC(=O)O)CCN(CC(=O)O)CCN(CC(=O)O)CC2)CC1)C(C)(C)C)C(=O)N1CSC[C@H]1C(N)=O [[^177Lu]Lu-LW01142, metal not drawn] ({DOTA}-[X1][dF]HWA[Tle]G[NMeH]L[Thz]-NH2)
reduction of average pancreas uptake by co-injection of blocker (PC-3 tumor-bearing mice; [6]): 58%
reduction of average tumor uptake by co-injection of blocker (PC-3 tumor-bearing mice; [6]): 62%
